Assays:
4T1 cells [1] = test: Cytotoxicity assay (CellTiter-Glo 2.0) on 4T1 cells; format: cell-based, Mouse; conditions: incubation 2 days; for IC50: Mus musculus, 48 h
How it was run: (§1)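 Seed cells day 0 in respective growth medium; add compounds; incubate for line-specific time; add CellTiter-Glo 2.0, shake, 10 min RT dark; read luminescence; calculate viability and relative IC50.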

MDA-MB-231 cells [2] = test: Cytotoxicity assay (CellTiter-Glo 2.0) on MDA-MB-231 cells; format: cell-based, Human; conditions: incubation 3 days; for IC50: Homo sapiens, 72 h
How it was run: as §1

HUVECs = test: Tube formation assay (anti-angiogenic activity); format: cell-based, human; conditions: incubation 16 to 18 hours; for IC50: Homo sapiens, HUVEC
How it was run: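 HUVECs plated at 5000 cells/well on reduced growth factor basement membrane matrix, then exposed to compounds for 16 to 18 hours at 37°C. Cells stained with calcein-AM; tube networks imaged by confocal fluorescence microscopy and quantified.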

EoL-1 cells = test: Cytotoxicity assay (CellTiter-Glo 2.0) on EoL-1 cells; format: cell-based, Human; conditions: incubation 1 day; for IC50: Homo sapiens, EOL1, 24 h
How it was run: as §1

4T1 cells [3] = test: Epithelial-mesenchymal transition marker expression by qRT-PCR; format: cell-based, Mouse; design: key: ↗: increased expression; ↘: decreased expression; =: unchanged expression levels; conditions: 24 hours, expression normalized against RPL13
From the text: The epithelial-mesenchymal transition (hereafter "EMT") is a process by which epithelial cells lose their cell polarity and cell-cell adhesion while gaining migratory and invasive properties to become mesenchymal stem cells. EMT is commonly measured by quantifying both epithelial and mesenchymal marker's expression by quantitative reverse-transcription polymerase chain reaction (hereafter "qRT-PCR"). EMT inhibition is observed when epithelial markers are stable or increased while mesenchymal markers are decreased.
4T1 cells were treated with compounds to be tested or DMSO for 24 hours. 4T1 cells were then harvested directly in NucleoZol lysis buffer (cat. no. 740404.200 from Macherey-Nagel), according to the manufacturer's instructions. Total RNA was extracted using the NucleoSpin RNA set for NucleoZol (cat. no. 740406.50 from Macherey-Nagel). The quantity and purity of RNA was determined using a Quickdrop (Molecular Devices). RT-PCR was performed on 500 ng total RNA using iScript gDNA clear cDNA synthesis Kit (cat.no. 1725035 from Biorad). The qPCR was run on a QuantStudio 5 real time thermocycler (Applied Biosystems), with PowerUp SYBR Green Master Mix (cat.no. A25742 from Fisher Scientific) and the primers listed in Table 16.
Expression data of EMT markers have been normalized against expression data of the housekeeping gene RPL13.

RD cells = test: Cytotoxicity assay (CellTiter-Glo 2.0) on RD cells; format: cell-based, Human; conditions: for IC50: Homo sapiens
How it was run: as §1

MDA-MB-231 cells [4] = test: Scratch (wound healing) assay, cell migration; format: cell-based, Human; conditions: 24 hours, Figure 1
Protocol: Cell migration is involved in several pathological cancer processes such as tumor invasion, neoangiogenesis and metastasis. Scratch (or wound healing) assay is a method to study two-dimensional cell migration in vitro. It is based on the observation that cells growing in a monolayer migrate to reestablish cell contacts after a mechanical scratch wound.
The MDA-MB-231 cells were seeded into a 24-well plate and grown to confluent density. A scrape was made in each well using a pipette tip. Then, the cells monolayers were incubated for 2 hours with 5 µg/ml mitomycin C to stop cell proliferation. The cells were treated with the compounds to be tested for 24 hours. The cells were stained using CellMask Green actin tracking stain (cat.no. A57246 from Fisher Scientific) at time zero and at endpoint. Pictures were acquired using a fluorescence microscope (IXM from Molecular Device). The scratch area was measured with the ImageJ software. The recovery of the scratch area was calculated as a percentage of the scratch area at time zero.

| Structure (SMILES) | IC50 (4T1 cells [1]) [µM] | Cytotoxicity (4T1 cells [1]) | IC50 (MDA-MB-231 cells [2]) [µM] | Cytotoxicity (MDA-MB-231 cells [2]) | IC50 (HUVECs) [µM] | Angiogenesis inhibition (HUVECs) | IC50 (EoL-1 cells) [µM] | Cytotoxicity (EoL-1 cells) | Epithelial markers E-cadherin (4T1 cells [3]) | Epithelial markers EpCAM (4T1 cells [3]) | Mesenchymal markers Fibronectin (4T1 cells [3]) | Mesenchymal markers Vimentin (4T1 cells [3]) | Cytotoxicity (RD cells; 2 day-treatment) | Cytotoxicity (RD cells; 4 day-treatment) | IC50 (RD cells; 48 h, 2 day-treatment) [µM] | IC50 (RD cells; 96 h, 4 day-treatment) [µM] | migration in the scratch assay (MDA-MB-231 cells [4]) |
| --- | --- | --- | --- | --- | --- | --- | --- | --- | --- | --- | --- | --- | --- | --- | --- | --- | --- |
| CSc1cc(Oc2ccnc3c2CCC(=O)N3)ccc1NC(=O)Nc1cc(C(C)(C)C)nn1-c1cncc(F)c1 [Compound 027, 1-[5-tert-butyl-2-(5-fluoro-3-pyridyl)pyrazol-3-yl]-3-[2-methylsulfanyl-4-[(7-oxo-6,8-dihydro-5H-1,8-naphthyridin-4-yl)oxy]phenyl]urea] | < 1 | +++ (cytotoxicity ≥ 85%) | < 1 | ++ (50% ≤ cytotoxicity < 85%) | < 0.1 | +++ (angiogenesis inhibition ≥ 80%) | 0.001 to 0.01 | +++ (cytotoxicity ≥ 85%) | ↗ | = | ↘ | ↘ | ++ (50% ≤ cytotoxicity < 85%) | ++ (50% ≤ cytotoxicity < 85%) | 1 to 5 | 1 to 5 | – |
| CC(C)(C)c1cc(NC(=O)Nc2ccc(Oc3ccnc4c3CCC(=O)N4)cc2C(F)(F)F)on1 [Compound 023, 1-(3-tert-butylisoxazol-5-yl)-3-[4-[(7-oxo-6,8-dihydro-5H-1,8-naphthyridin-4-yl)oxy]-2-(trifluoromethyl)phenyl]urea] | 1 to 5 | +++ (cytotoxicity ≥ 85%) | 1 to 5 | ++ (50% ≤ cytotoxicity < 85%) | 0.1 to 0.5 | +++ (angiogenesis inhibition ≥ 80%) | 0.001 to 0.01 | +++ (cytotoxicity ≥ 85%) | ↗ | = | ↘ | ↘ | ++ (50% ≤ cytotoxicity < 85%) | ++ (50% ≤ cytotoxicity < 85%) | 1 to 5 | 1 to 5 | – |
| Cc1ccc(-n2nc(C(C)(C)C)cc2NC(=O)Nc2ccc(Oc3ccnc4c3OCC(=O)N4)cc2C(F)(F)F)cn1 [Compound 040, 1-[5-tert-butyl-2-(6-methyl-3-pyridyl)pyrazol-3-yl]-3-[4-[(3-oxo-4H-pyrido[3,2-b][1,4]oxazin-8-yl)oxy]-2-(trifluoromethyl)phenyl]urea] | < 1 | +++ (cytotoxicity ≥ 85%) | 1 to 5 | ++ (50% ≤ cytotoxicity < 85%) | 0.1 to 0.5 | +++ (angiogenesis inhibition ≥ 80%) | 0.01 to 0.1 | ++ (50% ≤ cytotoxicity < 85%) | – | – | – | – | ++ (50% ≤ cytotoxicity < 85%) | ++ (50% ≤ cytotoxicity < 85%) | 5 to 10 | 5 to 10 | inhibition of their migration |
| CSc1cc(Oc2ccnc3c2CCC(=O)N3)ccc1NC(=O)Nc1cc(C(C)(C)C)nn1-c1cccc(CN2CCOCC2)c1 [Compound 047, 1-[5-tert-butyl-2-[3-(morpholinomethyl)phenyl]pyrazol-3-yl]-3-[2-methylsulfanyl-4-[(7-oxo-6,8-dihydro-5H-1,8-naphthyridin-4-yl)oxy]phenyl]urea] | < 1 | +++ (cytotoxicity ≥ 85%) | 1 to 5 | ++ (50% ≤ cytotoxicity < 85%) | < 0.1 | +++ (angiogenesis inhibition ≥ 80%) | 0.001 to 0.01 | +++ (cytotoxicity ≥ 85%) | – | – | – | – | ++ (50% ≤ cytotoxicity < 85%) | ++ (50% ≤ cytotoxicity < 85%) | 5 to 10 | 1 to 5 | – |
